Consider ten compounds from patent US20200079814A1, “Nucleotides comprising an N-[(S)-1-cyclobutoxycarbonyl]phosphoramidate moiety and analogs and application thereof” (priority 2017, published 2020).

One data set deals with HCV. The following applies: literature; cited from earlier work.
In data set [1] the test system is HIV strain NL4.3 carrying the GFP-reporter (NL4.3-GFP). In words: microbe, parasite or virus in culture. In kind it is cell-based. Conditions: for EC50: Human immunodeficiency virus 1, SUP-T1, 45 h; for SI = CC50/EC50: SupT1 cells. The protocol: (§1) The antiviral activity of tested compounds was evaluated on the T-lymphocytes line, SupT1. The cells were infected with the HIV strain NL4.3 carrying a gene encoding the green fluorescent protein (NL4.3-GFP). A virus preparation was obtained by means of transfection of the 293T cells of […] DNA. After 48 hours of transfection, the medication was frozen and stored until being used. To increase the efficiency of infection, the suspension of SupT1 cells was sedimented from the infection mixture by centrifugation. Tested compounds were added to the cells immediately before adding the virus. After 2 hours of incubation, the infection mixture was replaced by a fresh culture medium with tested compounds. The efficiency of infection was evaluated after 45 hours by computing the percentage of fluorescence-bright cells against uninfected cell cultures. Concurrently, the cytotoxicity of tested compounds was evaluated in the same, but uninfected, cell line SupT1 using the XTT reagent. To determine antiviral activity and cytotoxicity, serial tenfold dilutions of the preparations were used (starting with 10 j-M for antiviral activity and from 100 μM for cytotoxicity). DMSO (0.1%) was used for negative control. The values of EC50, CC50 and SI (selectivity index) were found. The quality of tests was evaluated based on the following controls: signal to background ratio, integrase inhibitor raltegravir (1 μM), and reproducibility of test results. Emetine (0.03, 0.09, and 0.2 μM) was used as the reference for cytotoxicity evaluation.

Data set [2] in a line: Cytotoxicity in uninfected SupT1 cells (XTT reagent). The following applies: human, uninfected SupT1 cells (T-lymphocyte line). In kind it is cell-based. The protocol:
as §1
For orientation: Formazan colour is commonly taken as a measure of viable cells.

Data set [3] in a line: Stability in human liver S9 fraction. The protocol:
(§2) Initial compositions comprising the prodrug of formula 1B.7 (the tested compounds) were prepared with a concentration of 10 mM in DMSO. From said compositions, 100-fold working solutions were prepared with a concentration of 100 μM in a mixture of acetonitrile:water with a volumetric ratio of 1:1.
(§3) The samples were then centrifuged, and the supernatant (150 μl) was sampled for analysis […]. The incubation was performed in two replicates, with each sample measured twice.
(§4) Samples were analyzed using an HPLC-MS/MS technique developed for each tested prodrug, wherein the chromatographic system 1290 Infinity II (Agilent Technologies) was combined with the tandem mass spectrometer QTRAP5500 (AB Sciex). […] Scanning in a total ion current mode (MS1) allowed us to identify a molecular ion for each compound, and basic product ions were recorded in MS2 mode. […] In quantitative chromatogram processing, the most intensive MRM transition was used for the analyte and the internal standard. […]
(§5) Half-life (T1/2) was found from the kinetics of tested prodrug elimination in an antiviral composition during incubation in a biological matrix. […] From linear dependence of log normalized areas of chromatographic peaks on time, the constant of elimination rate was calculated (k is linear section slope).

A further data set is described as follows: physchem. Conditions: for half-life at 1 μM: simulated gi fluid. The protocol: as §2
b) Stability in Artificial Gastric and Intestinal Juices.
The tested composition comprising the prodrug of formula 1B.7 in a final concentration of 1 μM was incubated in artificial gastric juice (0.2% NaCl in 0.7% v/v HCl) and artificial intestinal juice (0.05M KH2PO4, pH 6.75). The incubation was performed in a Vortemp56 shaking incubator at 37° C. with stirring at a rate of 300 rev/min. […] The samples were then centrifuged, and the supernatant (150 μl) was sampled for analysis […]. The incubation was performed in two replicates, with each sample measured twice.
Samples were analyzed using an HPLC-MS/MS technique developed for each tested prodrug, wherein the chromatographic system 1290 Infinity II (Agilent Technologies) was combined with the tandem mass spectrometer QTRAP5500 (AB Sciex). When developing conditions for mass-spectrometric detection, the solutions of tested compounds in a mixture of acetonitrile-water 1:1 with a concentration of 100 ng/ml were injected directly into the mass spectrometer using a syringe pump with electrospray ionization in a positive ion mode. Scanning in a total ion current mode (MS1) allowed us to identify a molecular ion for each compound, and basic product ions were recorded in MS2 mode. Then, to attain maximum sensitivity, the MS/MS technique was optimized in MRM mode. In quantitative chromatogram processing, the most intensive MRM transition was used for the analyte and the internal standard. Separation was carried out by means of linear gradient elution chromatography on a YMC Triart C18 column (50×2 mm, 1.9 μm) in a mobile phase consisting of 0.1% formic acid in water and 0.1% formic acid in acetonitrile. Tolbutamide (Fluka) was used as the internal standard.
Half-life (T1/2) was found from the kinetics of tested prodrug elimination in an antiviral composition during incubation in a biological matrix. The computations were based on the values of chromatographic peak areas for compounds in test samples normalized to the internal standard signal. From linear dependence of log normalized areas of chromatographic peaks on time, the constant of elimination rate was calculated (k is linear section slope).

The conditions of data set [4]: pooled human blood plasma, 1 μM, 37° C. The protocol:
as §2, §3, §4, §5

The conditions of data set [5]: from M. J. Sofia et al. J. Med. Chem. 2010; cited from earlier work.
For data set [6] the following is noted: from M. J. Sofia et al. J. Med. Chem. 2010; cited from earlier work. The source holds these as a separate data set.
The conditions of data set [7]: from M. J. Sofia et al. J. Med. Chem. 2010; cited from earlier work. This is another data set of the same source.
Data set [8] relates to HCV replicon, genotype 1b (gT1b HCV NS5B). The following applies: cited from earlier work; for EC50: from hcvdruginfo.ca.
The conditions of data set [9]: from M. J. Sofia et al. J. Med. Chem. 2010; cited from earlier work. The source holds these as a separate data set.
The test system of data set [10] is HCV replicon, genotype 1b (gT1b HCV NS5B). In words: Anti-HCV activity in Huh7 cells stably transfected with an HCV replicon. In kind it is cell-based. The protocol: The antiviral activity of tested compositions comprising prodrugs was evaluated using an Huh7 human hepatocellular carcinoma cell line stably transfected with an HCV replicon. A cell suspension in a complete culture medium (DMEM 1X, Cellgro; cat. #10-013-CV) was transferred into 96-well plates (50 μl per well) with a final density of 7500 cells per well. The serial dilutions of tested prodrugs were prepared from a fresh 200-fold generic solution in DMSO with 11 concentration points dilution for each step, starting from 20 nM in a complete medium and were used as 2-fold solutions in two replicates. Minimum 4 hours after planting the cells, 50 μl of serial prodrug dilutions was added to each well. […] The plate with cells was incubated for 3 days at 37° C. under humidified 5% CO2. Upon completion of incubation, the medium was removed by turning the plate over and shaking it carefully. The cells were fixed for one minute with 100 μl of a 1:1 acetone:methanol solution, washed 3 times with a phosphate buffer (PBS), and blocked for 1 h at room temperature using a 10% fetal bovine serum (FBS) in PBS (150 μl/well). […] The reaction was stopped by 2N H2SO4 (100 μl/well), and OD490 was measured using the multifunctional reader Victor^3 V 1420 (Perkin Elmer). The values of EC50 for tested prodrugs were measured from an activity curve plotted using the GraphPad Prizm software.
(In antiviral work, replicon cells carry a viral genome segment that copies itself.)

Data set [11] deals with Huh7 human hepatocellular carcinoma cell line. Conditions: from M. J. Sofia et al. J. Med. Chem. 2010; cited from earlier work.
Another data set has as its system SupT1 cells. In words: Cytotoxicity in uninfected SupT1 cells (XTT reagent). The format is cell-based. The protocol: as §1
Setting [12] is: gT1b, from M. J. Sofia et al. J. Med. Chem. 2010.

Structures are written as SMILES. Several values for one entry are separate records, joined by “and”; a condition that tells them apart may be missing. Identical values can stand only once. Like-named read-outs stand apart in the source and are kept apart here. Marks after values point to notes of the source that are not given here.

Usually EC50 stands for the concentration giving half of the maximal effect. What is called EC90 is the concentration at which the effect reaches the 90% level. What is called CC50 is the concentration that lowers cell viability or growth by half. A higher CC50 goes with better tolerance by the cells. The term half-life denotes how long it takes for the measured level to halve. High values mean slow loss, low ones fast loss.

In the case of `CC(C)(CO)C(=O)SCCOP(=O)(NCc1ccccc1)OC[C@H]1OC(n2cnc3c(=O)[nH]c(N)nc32)[C@](C)(O)[C@@H]1O` (stereo partly shown) [IDX-184], the EC50 with HCV is 400 nM.
In the case of `COc1nc(N)nc2c1ncn2[C@@H]1O[C@H](COP(=O)(N[C@@H](C)C(=O)OCC(C)(C)C)Oc2cccc3ccccc23)[C@@H](O)[C@@]1(C)O` (stereo partly shown) [INX-08189], the 50% effective concentration (EC50) with HCV was 10 nM.
`COc1nc(N)nc2c1ncn2C1O[C@H](COP(=O)(N[C@@H](C)C(=O)OC(C)C)Oc2ccccc2)[C@@H](O)[C@@]1(C)F` (stereo partly shown) [PSI-353661]: the EC90 with HCV is 8 nM.
For the compound `C[C@H](Cn1cnc2c(N)ncnc21)OC[P@@](=O)(N[C@@H](C)C(=O)OC1CCC1)Oc1ccccc1` [Prodrug 1A.1, (S)-cyclobutyl 2-((S)-(((R)-1-(6-amino-9H-purin-9-yl)propan-2-yloxy)methyl) (phenoxy)phosphorylamino)-propanoate], in data set [1], the EC50 amounted to 27 nM and the “SI = CC50/EC50” value is listed as more than 3704. In addition, in [1] (SupT1 HIV test, versus TAF), the “selectivity, times higher than TAF” value is 1.4 times. Moreover, in data set [2], the CC50 is more than 100000 nM.
On to `C[C@H](Cn1cnc2c(N)ncnc21)OC[P@](=O)(N[C@@H](C)C(=O)OC1CCC1)Oc1ccccc1` [Prodrug 1A.2, (S)-cyclobutyl 2-((R)-(((R)-1-(6-amino-9H-purin-9-yl)propan-2-yloxy)methyl) (phenoxy)phosphorylamino)-propanoate], for which, in [1], a half-maximal response (EC50) required 38 nM and the “SI = CC50/EC50” value is reported as more than 2632. Further, in [2], the CC50 was more than 100000 nM.
As to `C[C@H](N[P@](=O)(OC[C@H]1O[C@@H](n2ccc(=O)[nH]c2=O)[C@](C)(F)[C@@H]1O)Oc1ccccc1)C(=O)OC1CCC1` [Prodrug 1B.7, (S)-cyclobutyl 2-{(S)-[(2R,3R,4R,5R)-5-(3,4-dihydro-2,4-dioxo-2H-pyrimidin-1-yl)-3-hydroxy-4-methyl-4-fluoro-tetrahydrofuran-2-ylmethoxy]-phenoxy-phosphorylamino}-propanoate], the “metabolic rate in human S9 fraction, times faster than Sovaldi” value in data set [3] (versus Sovaldi) came to 11 times. Moreover, the “metabolic rate in human S9 fraction, times faster than compound 2.1” value in data set [3] (versus compound of formula 2.1) is 28 times. Further, in the data set “physchem” (artificial gastric juice, 1 μM, 37° C.), the “T1/2 SGF” value is reported as 12.7 h. In the data set “physchem” (artificial intestinal juice, 1 μM, 37° C.), the “T1/2 SIF” value is given as more than 24 h. In addition, the half-life at 1 μM in the data set “physchem” is 12.7 to 17 h; in “physchem” (pH 6.75), more than 20 h. In addition, the T1/2 human plasma in data set [4] is given as more than 24 h.
For `C[C@H](NP(=O)(OC[C@H]1O[C@@H](n2ccc(=O)[nH]c2=O)[C@](C)(F)[C@@H]1O)Oc1ccccc1)C(=O)OC1CCCCC1` (stereo partly drawn) [Prodrug 2.1, cyclohexyl (S)-2-{[(2R,3R,4R,5R)-5-(2,4-dioxo-3,4-dihydro-2H-pyrimidin-1-yl)-4-fluoro-3-hydroxy-4-methyl-tetrahydrofuran-2-ylmethoxy]-phenoxy-phosphorylamino}-propionate], in [5], the “T1/2 human S9” value is recorded as 1.4 h. For the same compound, the “T1/2 SGF” value in data set [6] is recorded as 17* h. The T1/2 human plasma in data set [7] is recorded as >24* h. Further, the EC90 in data set [8] (setting [12]) is 250 nM. For the same compound, the “T1/2 SIF” value in [9] is listed as >20* h.
As to `C[C@H](N[P@](=O)(OC[C@H]1O[C@@H](n2ccc(=O)[nH]c2=O)[C@](C)(F)[C@@H]1O)Oc1ccccc1)C(=O)OC1CC1` [Prodrug 2.2, (S)-cyclopropyl 2-((S)-(((2R,3R,4R,5R)-5-(2,4-dioxo-3,4-dihydropyrimidin-1(2H)-yl)-3-hydroxy-4-methyl-4-fluoro-tetrahydrofuran-2-yl)methoxy)-(phenoxy)-phosphorylamino)-propanoate], the EC90 in [10] (10% FBS) was determined as 410 nM. In data set [10] (Hepatitis C virus, Huh-7, 10% FBS), this compound gave a 50% effective concentration (EC50) of 73 nM.
For the compound `CC(C)OC(=O)[C@H](C)NP(=O)(OC[C@H]1O[C@@H](n2ccc(=O)[nH]c2=O)[C@](C)(F)[C@@H]1O)Oc1ccccc1` (stereo partly drawn) [Sovaldi ®, isopropyl (S)-2-{[(2R,3R,4R,5R)-5-(2,4-dioxo-3,4-dihydro-2H-pyrimidin-1-yl)-4-fluoro-3-hydroxy-4-methyl-tetrahydrofuran-2-ylmethoxy]-phenoxy-phosphorylamino}-propionate], the “T1/2 human S9” value in data set [5] is 0.54 h and 0.57 h. Further, the CC90 in data set [11] is more than 100000 nM. Further, the “T1/2 SGF” value in data set [6] is recorded as 22.0* h. In data set [7], the T1/2 human plasma is >24* h. Moreover, the EC90 in data set [8] (setting [12]) was 520 nM; in data set [8] (gT1b, from M. J. Sofia et al. J. Med. Chem. 2010, listed as Sovaldi®), 590 nM; in data set [8] (genotype 1b (gT1b) HCV) it was 590 nM. Further, the EC50 in data set [8] (gT1b) and in [8] (genotype 1b (gT1b) HCV) was 45 to 170 nM each time. The “T1/2 SIF” value in data set [9] is reported as >24* h.
Regarding `CC(C)OC(=O)[C@H](C)N[P@](=O)(CO[C@H](C)Cn1cnc2c(N)ncnc21)Oc1ccccc1` [TAF, temofovir alafenamide], in [1], the EC50 was 35 nM and the “SI = CC50/EC50” value is reported as 2857. Besides, the 50% cytotoxic concentration (CC50) in the data set with SupT1 cells was more than 100000 nM.
